Like-named read-outs stand apart in the source and are kept apart here.
Experiments:
[1] = organic solvents such as toluene; cited from earlier work
BABS = experiment: Radioimmunoassay, inhibition of 125I-digoxin binding to BABS by cardiac glycosides; parameters: species or system murine
Method: (§1) After the plates were washed and blocked with 1% horse serum in PBSA, solutions ([…]) containing 26-10 Fab or the BABS in either PBSA or 0.01 M sodium acetate at pH 5.5 were added to the wells and incubated 2-3 hrs at room temperature.

26-10 Fab = assay type: binding, murine
Method: as §1

[2] = system: biosynthetic protein (FB-sFv 26-10); experiment: Inhibition of 125I-dig-lysine binding by unlabelled cardiac glycosides; parameters: species or system murine; conditions: unlabelled glycoside; compared with parent 26-10 Fab
Source text: Properties of the binding site were probed by a modification of an assay developed by Mudgett-Hunter et al. (J. Immunol. (1982) 129:1165-1172; Molec. Immunol. (1985) 22:477-488), so that it could be run on microtiter plates as a solid phase sandwich assay. Binding data were collected using goat anti-murine Fab antisera (gAmFab) as the primary antibody that initially coats the wells of the plate. These are polyclonal antisera which recognize epitopes that appear to reside mostly on framework regions.
These are polyclonal antisera which recognize epitopes that appear to reside mostly on framework regions.

[3] = 1-octanol and water; cited from earlier work
[4] = Oleandrin transport through supported liquid membrane without binding protein; conditions: absence of binding protein
Source text: (§2) A hollow fiber device was constructed using 100×17.8 cm PAN fibers, produced by Sepracor, Inc., Marlborough, Mass. Each PAN fiber is a tubular membrane having a wall thickness of 50 μm and an internal diameter of 205 μm. Thus, this device contains a geometric surface area of 115 cm^2 of PAN fiber. The associated fluid handling equipment comprised two peristaltic pumps, one for the shell loop and one for the luman loop, a pressure gauge on the shell loop for determining the pressure drop from the shell side to the lumen side, and a throttling valve for creating a positive pressure on the shell side.
The device was first washed with 1 L of water. This washing involved convecting water through the lumen, through the shell, and through the PAN fibers from shell-side to lumen.
Following the washing procedure, the liquid membrane was put in place. A buffer solution of the same composition as that in which the FB-sFv protein was dissolved (50 mM sodium chloride) was pumped through the fibers, from the shell-side to the lumen. Approximately 100 mls of buffer solution were convected through the fibers. […]
Oleandrin is a cardiac glycoside having a molecular weight of 576, and an organic to aqueous partition coefficient between 1-octanol and water of 338 (Cohnen et al, Drug Res. 28 (II), Heft 12, 1978). […] The quantity of oleandrin contained in each lumen reservoir sample was determined by HPLC.

[5] = Partition coefficient of oleandrin; assay type: physicochemical; conditions: 1-octanol and water; read-out: aqueous to organic coefficient S
FB-sFv 26-10 = experiment: Oleandrin facilitated transport through supported liquid membrane containing FB-sFv 26-10; parameters: species or system murine
Source text: as §2
The fluid loops were then drained. 100 mls of buffer containing 10.0 mgs of FB-sFv 26-10 produced as disclosed above were then slowly ultrafiltered from the shell loop at a pressure of 10 psi. […] After this time, no bulk fluid, either aqueous or organic, was present in either loop. […] Since an optical density of 1.0 at 280 nm indicates a protein concentration of 1.0 mg/ml, the filtrate contained 4.0 mgs protein. 6.0 mgs of FB-sFv 26-10 were therefore assumed to be contained in the supported liquid membrane.
Octanol saturated with buffer, but not containing oleandrin, was then convected through each loop, with the 10 psi pressure differential across the supported liquid membrane. Once uninterrupted convection through each loop was established, the shell loop reservoir was replaced with a reservoir containing 500 mls of octanol saturated with buffer, and containing 2.0 mg/ml oleandrin. The lumen reservoir was replaced with a reservoir containing 50 mls of buffer saturated octanol, containing no oleandrin. Over a 24 hour period, no convective flow of octanol through the supported liquid membrane occurred.
During this period, successive 1 ml samples of the lumen reservoir were taken. In order not to disturb the volume of the lumen reservoir, the octanol taken in each sample was replaced with 1 ml of buffer saturated octanol after drawing each sample. The quantity of oleandrin contained in each lumen reservoir sample was determined by HPLC.

[6] = normalizing glycoside digoxigenin

| Structure (SMILES) | solubility in organic solvents [1] | normalized concentration of inhibitor giving 50% inhibition of 125I-digoxin binding (BABS; [6]) | normalized concentration of inhibitor giving 50% inhibition of 125I-digoxin binding (BABS; normalizing glycoside digoxin) | normalized concentration of inhibitor giving 50% inhibition of 125I-digoxin binding (26-10 Fab; [6]) | normalized concentration of inhibitor giving 50% inhibition of 125I-digoxin binding (26-10 Fab; normalizing glycoside digoxin) | inhibition of binding of 125I-dig-lysine [2] | organic to aqueous partition coefficient [3] | first order polynomial (slope) of change in oleandrin concentration [4] | aqueous to organic partition coefficient [5] | initial flux of oleandrin (FB-sFv 26-10; BABS-containing membrane) | average flux of oleandrin (FB-sFv 26-10; BABS-containing membrane, 24-hour) | first order polynomial (slope) of change in oleandrin concentration (FB-sFv 26-10; presence of binding protein, time zero) | initial increase of oleandrin flux (FB-sFv 26-10; with vs without 26-10 protein) |
| --- | --- | --- | --- | --- | --- | --- | --- | --- | --- | --- | --- | --- | --- |
| CCOC(=O)C(C)c1ccc2cc(OC)ccc2c1 (racemic) [racemic ethyl ester of naproxen, ethyl ester of naproxen] | to the extent of moles per liter | – | – | – | – | – | – | – | – | – | – | – | – |
| CC(=O)OC1CCC2(C=O)C3CCC4(C)C(C5=CC(=O)OC5)CCC4(O)C3CCC2(O)C1 (centres unmarked) [Acetyl Strophanthidin, acetyl strophanthidin] | – | 0.8 | 5.9 | 1.1 | 1.3 | can be inhibited | – | – | – | – | – | – | – |
| C[C@]12CC[C@H](O)C[C@H]1CC[C@@H]1[C@@H]2CC[C@]2(C)[C@@H](C3=CC(=O)OC3)CC[C@]12O [Digitoxigenin, digitoxigenin] | – | 0.4 | 2.6 | 0.9 | 1.0 | can be inhibited | – | – | – | – | – | – | – |
| C[C@H]1O[C@@H](O[C@H]2[C@@H](O)C[C@H](O[C@H]3[C@@H](O)C[C@H](O[C@H]4CC[C@@]5(C)[C@H](CC[C@@H]6[C@@H]5CC[C@]5(C)[C@@H](C7=CC(=O)OC7)CC[C@]65O)C4)O[C@@H]3C)O[C@@H]2C)C[C@H](O)[C@@H]1O [Digitoxin, digitoxin] | – | 0.3 | 2.0 | 0.8 | 0.9 | can be inhibited | – | – | – | – | – | – | – |
| C[C@]12CC[C@H](O)C[C@H]1CC[C@@H]1[C@@H]2C[C@@H](O)[C@]2(C)[C@@H](C3=CC(=O)OC3)CC[C@]12O [Digoxigenin, digoxigenin] | – | 1.0 | 7.3 | 1.0 | 1.2 | can be inhibited | – | – | – | – | – | – | – |
| C[C@H]1O[C@@H](O[C@H]2[C@@H](O)C[C@H](O[C@H]3[C@@H](O)C[C@H](O[C@H]4CC[C@@]5(C)[C@H](CC[C@@H]6[C@@H]5C[C@@H](O)[C@]5(C)[C@@H](C7=CC(=O)OC7)CC[C@]65O)C4)O[C@@H]3C)O[C@@H]2C)C[C@H](O)[C@@H]1O [Digoxin, digoxin] | – | 0.1 | 1.0 | 0.9 | 1.0 | can be inhibited | – | – | – | – | – | – | – |
| C[C@H]1O[C@@H](O[C@H]2[C@@H](O)C[C@H](O[C@H]3[C@@H](O)C[C@H](O[C@H]4CC[C@@]5(C)[C@H](CC[C@@H]6[C@@H]5CC[C@]5(C)[C@@H](C7=CC(=O)OC7)[C@@H](O)C[C@]65O)C4)O[C@@H]3C)O[C@@H]2C)C[C@H](O)[C@@H]1O [Gitoxin, gitoxin] | – | 8.5 | 62 | 8.1 | 9.6 | can be inhibited | – | – | – | – | – | – | – |
| CO[C@H]1C[C@H](O[C@H]2CC[C@@]3(C)[C@H](CC[C@@H]4[C@@H]3CC[C@]3(C)[C@@H](C5=CC(=O)OC5)[C@@H](OC(C)=O)C[C@]43O)C2)O[C@@H](C)[C@@H]1O [Oleandrin, oleandrin] | – | – | – | – | – | can be inhibited | 338 | 0.0023 mg/mL/h | ~0.003 | 4.9×10^-12 gmole/sec-cm^2 | 2.9×10^-12 gmole/sec-cm^2 | 0.0215 mg/mL/h | 9.3 fold |
| C[C@@H]1O[C@@H](O[C@H]2C[C@@H](O)[C@]3(CO)[C@H]4[C@H](O)C[C@]5(C)[C@@H](C6=CC(=O)OC6)CC[C@]5(O)[C@@H]4CC[C@]3(O)C2)[C@H](O)[C@H](O)[C@H]1O [Ouabain, ouabain] | – | 21 | 150 | 13 | 15 | can be inhibited | – | – | – | – | – | – | – |

From patent US5167824A, “Separation by carrier mediated transport” (priority 1990, dated 1992)
